Molecules are shown by their SMILES. Like-named read-outs stand apart in the source and are kept apart here.

In one data set the test system is HIV-1 (strain LAV). Kind of data set: microbe, parasite or virus in culture. It counts as cell-based. From the text:
It is often desirable to screen a number of racemic mixtures of nucleosides as a preliminary step to determine which warrant further resolution into enantiomerically enriched components and evaluation of antiviral activity. The ability of nucleosides to inhibit HIV can be measured by various experimental techniques. The technique used herein, and described in detail below, measures the inhibition of viral replication in phytohemagglutinin (PHA) stimulated human peripheral blood mononuclear (PBM) cells infected with HIV-1 (strain LAV). The amount of virus produced is determined by measuring the virus-coded reverse transcriptase enzyme. The amount of enzyme produced is proportional to the amount of virus produced.
A. Three-day-old phytohemagglutinin-stimulated PBM cells (10^6 cells/ml) from hepatitis B and HIV-1 seronegative healthy donors were infected with HIV-1 (strain LAV) at a concentration of about 100 times the 50% tissue culture infectious dose (TICD 50) per ml and cultured in the presence and absence of various concentrations of antiviral compounds.
B. Approximately one hour after infection, the medium, with the compound to be tested (2 times the final concentration in medium) or without compound, was added to the flasks (5 ml; final volume 10 ml). AZT was used as a positive control.
C. The cells were exposed to the virus (about 2×10^5 dpm/ml, as determined by reverse transcriptase assay) and then placed in a CO2 incubator. HIV-1 (strain LAV) was obtained from the Center for Disease Control, Atlanta, Ga. The methods used for culturing the PBM cells, harvesting the virus and determining the reverse transcriptase activity were those described by McDougal et al. (J. Immun. Meth. 76, 171-183, 1985) and Spira et al. (J. Clin. Meth. 25, 97-99, 1987), except that fungizone was not included in the medium (see Schinazi, et al., Antimicrob. Agents Chemother. 32, 1784-1787 (1988); Id., 34:1061-1067 (1990)).
D. On day 6, the cells and supernatant were transferred to a 15 ml tube and centrifuged at about 900 g for 10 minutes. Five ml of supernatant were removed and the virus was concentrated by centrifugation at 40,000 rpm for 30 minutes (Beckman 70.1 Ti rotor). The solubilized virus pellet was processed for determination of the levels of reverse transcriptase. Results are expressed in dpm/ml of sampled supernatant. Virus from smaller volumes of supernatant (1 ml) can also be concentrated by centrifugation prior to solubilization and determination of reverse transcriptase levels.

Data set [1] in a line: Cytotoxicity in mitogen stimulated uninfected human PBM cells (trypan blue exclusion). It counts as cell-based. From the text: The cells were counted after 6 days using a hemacytometer and the trypan blue exclusion method, as described by Schinazi et al., Antimicrobial Agents and Chemotherapy, 22(3), 499 (1982).
A further data set has as its system hepG2 cells. How it is done:
(§1) Studies were undertaken using radiolabeled agent in order to follow the intracellular profiles of the parent drug and metabolites detected within the cell. All studies were conducted in duplicate. […] Cells are exposed to the drug for 2, 6, 12 and 24 hours. At these timepoints, the medium is removed and the cells are washed two times with cold Hank's balanced salt solution. Extraction is performed with addition of 0.2 ml of 60% cold methanol/water and stored overnight at −70° C. The following morning, the suspensions are centrifuged and extractions are repeated two times for 0.5 hours at −70° C. The total supernatants (0.6 ml) are lyophilized to dryness. The residues are resuspended in 250 μl of water and aliquots comprising between 50 and 100 μl are analyzed by HPLC. Quantitation of intracellular parent drug and metabolic derivatives are conducted by HPLC. Because of the potential acid lability of some compounds, a buffer system close to physiological pH is used for the separation of the metabolites.

The subject of data set [2] is human PBM cells. The settings on record: 10 μM radiolabeled FTC, 2-24 hours. The protocol: as §1
The test system of a further data set is Vero cells. The conditions noted are these: African green monkey.
The subject of the next data set is CEM cells. The conditions noted are these: human.
Data set [3] in a line: Egress of radiolabeled (±)-FTC from human PBM cells. The settings on record: human PBM cells, after 24 hour pulse with 10 μM; read-out: intracellular half-life (converted). It counts as in vitro ADME. How it is done:
(§2) Studies are conducted in duplicate. Uninfected cells (2×10^6 ml) are suspended in the appropriate medium supplemented with serum (10 ml per timepoint) and incubated at 37° C. in a 5% CO2 incubator. Radiolabeled FTC concentration is 10 μM. After pulsing the cells with the labeled compound for the desired time, the cells are thoroughly washed and then replenished with fresh medium without the antiviral drugs (0 hr). At 0, 2, 4, 6, 12, 24, and 48 hours (second incubation time), the cells are removed, and immediately extracted with 60% cold methanol/water. The extract is obtained by centrifugation and removal of the cell pellet. The extracts are lyophilized and then stored at −70° C. Prior to analysis, the material is resuspended in 250 μl of HPLC buffer and immediately analyzed.
(§3) Either a Micromeritics or Hewlett-Packard model 1090 PHLC system is used with an anion exchange Partisil 10 SAX column (Whatman, Inc.), at a flow rate of 1 ml/min, 1 kpsi pressure, using uv detection at 262 nm.
(§4) The mobile phase consists of:
(§5) b. 2 mM NaH2PO4/16 mM NaOAc (pH=6.6)
(§6) Separation method: isocratic for 5 min with A, followed by a 15 min linear gradient to 100% B, followed by a 20 min linear gradient to 100% C, followed by 10 min linear gradient to 100% D, followed by 30 min isocratic with 100% D.

The test system of data set [4] is human PBM cells. The description is as above. The data set is classed as in vitro ADME. The conditions noted are these: 48 hours after the removal of the extracellular drug. The protocol: as §2, §3, §4, §5, §6
The target of the next data set is T1, HIV RT (Human immunodeficiency virus type 1 group M subtype B, UniProt P04585).
T1 construct: (±)-FTC triphosphate against HIV RT is 0.2 μM
Description: Affinity of triphosphate against HIV RT. It counts as biochemical. The settings on record: read-out: affinity (K^1) against HIV RT.

Turning to `Nc1nc(=O)n(C2CSC(CO)O2)cc1F` (racemic) [DLS-022, 2-hydroxymethyl-5-(5-fluorocytosin-1-yl)-1,3-oxathiolane], the DPM/ml in the data set on HIV-1 (strain LAV) (0.0001 μM) is 73,755 DPM/ml; in the data set with HIV-1 (strain LAV) (0.005 μM), 83,005 DPM/ml; in the data set with HIV-1 (strain LAV) (0.01 μM), 60,465 DPM/ml; in the data set on HIV-1 (strain LAV) (0.05 μM), 34,120 DPM/ml; with HIV-1 (strain LAV) (0.1 μM), 14,160 DPM/ml; in the data set with HIV-1 (strain LAV) (0.5 μM), 18,095 DPM/ml. Moreover, the values for the DPM/ml with HIV-1 (strain LAV) (1 μM), in the data set on HIV-1 (strain LAV) (5 μM) and with HIV-1 (strain LAV) (10 μM) were 7,555 DPM/ml, 7,940 DPM/ml and 5,810 DPM/ml, respectively. The inhibition at 0.0001 µM in the data set on HIV-1 (strain LAV) (Human immunodeficiency virus 1, PBMC, 0.0001 μM, read-out: % Inhibition (Corrected)) worked out at 26.6%. The EC50 was determined as 11 nM in the data set on HIV-1 (strain LAV) (Human immunodeficiency virus 1, PBMC, human PBM cells infected with HIV-1 (strain LAV), Table 3, read-out: Antiviral EC50); 18 nM in the data set with HIV-1 (strain LAV) (Human immunodeficiency virus 1, PBMC, human PBM cells infected with HIV-1, enantiomers isolated by chiral HPLC (Example 3), read-out: EC50); 17 nM with HIV-1 (strain LAV) (Human immunodeficiency virus 1, PBMC, human PBM cells infected with HIV-1, enantiomers resolved by method of Example 2 (FIG. 5), read-out: EC50). In the data set with HIV-1 (strain LAV) (Human immunodeficiency virus 1, PBMC, 0.005 μM, read-out: % Inhibition (Corrected)), the inhibition at 0.005 µM was 16.3%. The inhibition at 0.01 µM with HIV-1 (strain LAV) (Human immunodeficiency virus 1, PBMC, 0.01 μM, read-out: % Inhibition (Corrected)) stood at 41.3%. For the same compound, the inhibition at 0.05 µM with HIV-1 (strain LAV) (Human immunodeficiency virus 1, PBMC, 0.05 μM, read-out: % Inhibition (Corrected)) amounted to 70.4%. For the same compound, in the data set on HIV-1 (strain LAV) (Human immunodeficiency virus 1, PBMC, 0.5 μM, read-out: % Inhibition (Corrected)), the inhibition at 0.5 µM was 88.1%. The inhibition at 1 µM in the data set on HIV-1 (strain LAV) (Human immunodeficiency virus 1, PBMC, 1 μM, read-out: % Inhibition (Corrected)) was found to be 99.7%. Moreover, the inhibition at 5 µM with HIV-1 (strain LAV) (Human immunodeficiency virus 1, PBMC, 5 μM, read-out: % Inhibition (Corrected)) was 99.3%. Further, the inhibition at 10 µM in the data set on HIV-1 (strain LAV) (Human immunodeficiency virus 1, PBMC, 10 μM, read-out: % Inhibition (Corrected)) was 102%. The compound further had a concentration for half-maximal inhibition (IC50) at 6 days in [1] above 100000 nM. For the same compound, in the data set on hepG2 cells (hepG2 cells), the “metabolism to triphosphate in human liver cells” value was “metabolize a large percentage”. In addition, in the data set on hepG2 cells (human liver cells), the “uptake by hepG2 cells” value is listed as “taken up by hepG2 cells in large amounts”. Besides, the “uptake in human lymphocytes” value in the data set with human PBM cells [2] was “readily taken up”. In addition, the toxicity in the data set with Vero cells and with CEM cells was above 100 µM throughout. Further, the “activity against HBV” value with HBV (hepatitis B virus) is given as “effective”.

On to `Nc1nc(=O)n(C2CSC(COP(=O)(O)OP(=O)(O)OP(=O)(O)O)O2)cc1F` (racemic) [FTC-triphosphate], for which, in data set [3], the half-life at 10 μM is around 12 h. In addition, the intracellular concentration with human PBM cells [4] is 1 to 5 µM. Also, the Ki at HIV RT worked out at 200 nM.

Values taken from patent US20090239887A1, “Method of resolution and antiviral activity of 1,3-oxathiolane nucleoside enantiomers” (Emory University, priority 1990, published 2009).
